The source of these data is patent US9822373B2, “Mutant cells for protein secretion and lignocellulose degradation” (The Regents of the University of California, priority 2011, dated 2017).

The subject of experiment [1] is cellulase genes (cbh-1, gh5-1, gh6-2). Nature of the experiment: Quantitative RT-PCR, cellulase gene expression stated for the genes together. The settings on record: for induction of lignocellulolytic genes: wild-type N. crassa (WT) grown on the substance as sole carbon source; for induction of cellulase gene expression: 4 hour induction with 1 mM. It is filed as cell-based, Neurospora crassa. As to the method:
Conidia from strains were inoculated at an OD595 equal to 0.05 in 50 ml Vogel's salts (45) with 2% w/v sucrose in a 250 ml Erlenmeyer flask and grown under constant light at 200 rpm for 16 hours. Biomass was then spun at 4200 rpm for 10 minutes and washed in Vogel's salts twice to remove any excess sucrose. […] Cultures were induced for 4 hrs under constant light at 200 rpm. The culture biomass was then harvested by filtration over a Whatman glass microfiber filter (GF/F) on a Buchner funnel and washed with 50 ml Vogel's salts. The biomass was flash frozen in liquid nitrogen and stored at −80° C. Three independent biological duplicates (flasks) were evaluated for each time point.
Total RNA from frozen samples was isolated using Zirconia/Silica beads (0.5 mm diameter; Biospec) and a Mini-Beadbeater-96 (Biospec) with 1 mL TRIzol reagent (Invitrogen) according to the manufacturer's instructions. The total RNA was further purified by digestion with TURBO DNA-free (Ambion) and an RNeasy kit (Qiagen). RNA concentration and integrity was checked by Nanodrop and agarose gel electrophoresis.
Quantitative RT-PCR was performed using the EXPRESS One-Step SYBR GreenER Kit (Invitrogen) and the StepOnePlus Real-Time PCR System (Applied Biosystems). Reactions were performed in triplicate with a total reaction volume of 10 μl including 300 nM each forward and reverse primers and 75 ng template RNA. Data Analysis was performed by the StepOne Software (Applied Biosystems) using the Relative Quantitation/Comparative CT (ΔΔCT) setting. Data was normalized to the endogenous control actin with expression on sucrose as the reference sample.

The test system of experiment [2] is Exoglucanase (Cellobiohydrolase I). Nature of the experiment: MuLac (4-Methylumbelliferyl β-D-cellobioside) exoglucanase activity of culture supernatant. It is filed as cell-based, Neurospora crassa. On the procedure:
(§1) Strains were inoculated at an OD595 equal to 0.05 in 100 ml Vogel's salts with 1% (wt/vol) sucrose in a 250 ml Erlenmeyer flask and grown under constant light at 200 rpm for 24 hours. Cultures were then induced with 2% sucrose, 2% cellobiose, 1% sucrose/1% cellobiose, or 1% sucrose/1% Avicel®. Cultures continued to grow under constant light at 200 rpm for 5 days with supernatant collected at 1, 2, 3, 4 and 5 day. The collected supernatant was filtered through a 0.2 μm PES filter to remove biomass before being stored at −20° C. until all samples were collected. To visualize the secreted proteins, 15 μl of unconcentrated supernatant was run on a Criterion 10% Tris-HCL polyacrylamide gel and stained with Thermo Scientific GelCode Blue Stain Reagent.
Exoglucanase (Cellobiohydrolase I) activity was measured using a 4-Methylumbelliferyl β-D-cellobioside (MuLac) assay. This assay mainly measures the activity of CBH-1 and activity is expressed as the change in fluorescence over time resulting in the slope of a best-fit line as an indication of enzyme activity. Prior to performing this assay, any excess sugars in the culture supernatant were removed by passing the supernatant over a 5,000 Dalton concentrator (sartorius stedim Vivaspin 500). Retained proteins were washed twice with 50 mM sodium acetate pH 5 and diluted to 2 μg/μl to assure that the assay remained in the linear range. […] The assay was performed in a Beckman Coulter Paradigm plate reader set at 40° C. with excitation/emission wavelengths of 360/465 nm with readings every 30 seconds for 10 minutes. The slope of the best-fit line represents the MuLac activity for an individual culture supernatant. The MuLac activity is normalized to the initial dilution required to obtain a 2 μg/μl concentration in order to represent the undiluted activity. The activity of recombinant cellobiohydrolase-1 was used as a standard and data is presented as a percentage of the wild type activity on Avicel® after 4 days.

Experiment [3] has as its system Neurospora crassa. Nature of the experiment: Avicel hydrolysis assay with shake flask culture supernatants. It is filed as cell-based. On the procedure:
Cultures were grown in 1% sucrose for 24 hours followed by the addition of 2% sucrose or 0.2% cellobiose. Supernatant was harvested after 24 (WT, Δ3βG and Δ3βGΔcre) or 72 hours (Δ3βG). The WT Avicel® culture was grown for 5 days on 2% Avicel®, Δ3βG was grown in 1% sucrose for 24 hours followed by 48 hours in 1% Avicel® and Δ3βGΔcre was grown in 1% sucrose for 24 hours followed by 24 hours in 1% Avicel®.
Total Avicelase activity was conducted in 250 mL media bottles incubated at 50° C. on a orbital shaker at 200 rpm. Each bottle contained 1% cellulose (Avicel®) and 50 mM (pH 5.0) sodium acetate in a working volume of 50 mL. Tetracycline (10 μg/mL) was added to prevent microbial contamination. Bioreactor culture broth samples were buffer exchanged using a 10 kDa MWCO centrifugal filter to remove any soluble sugars prior to initiating hydrolysis experiments. After pre-incubating the hydrolysis mixture to 50° C., enzyme was added (1 mL filtered culture broth). Samples were taken every 4 hours for the first 12 hours and then every 12 hours thereafter for a total of 48 hours. Hydrolysis experiments were performed in triplicate.
Sucrose, fructose, glucose and cellobiose were measured on a DIONEX ICS-3000 HPLC (Dionex Corp., Sunnyvale, Calif.) using a CarboPac PA20 Analytical Column (3×150 mm) and a CarboPac PA20 guard column (3×30 mm) at 30° C. Following injection of 25 μl of diluted samples, elution was performed with 100 mM KOH (isocratic) at 0.4 ml/min. Sugars were detected using PAD, Four-Potential Carbohydrate Waveform and Peaks were analyzed using the Chromeleon software package.

The subject of experiment [4] is Neurospora crassa. Description: Secreted protein concentration in shake flask culture supernatant. It is filed as cell-based. The settings on record: for secreted protein concentration: 48 hours. As to the method: as §1

Consider `OC[C@H]1O[C@@H](O[C@H]2[C@H](O)[C@@H](O)[C@H](O[C@H]3[C@H](O)[C@@H](O)C(O)O[C@@H]3CO)O[C@@H]2CO)[C@H](O)[C@@H](O)[C@@H]1O` (some centres unmarked) [cellotriose], for which the “induction of lignocellulolytic genes” value in experiment [1] is “not induced”.
On to `OC[C@H]1O[C@@H](O[C@H]2C(O)O[C@H](CO)[C@@H](O)[C@@H]2O)[C@H](O)[C@@H](O)[C@@H]1O` (some centres unmarked) [sophorose], for which the “induction of cellulase gene expression” value in experiment [1] (WT) and in experiment [1] (Δ3βG mutant) was “did not significantly induce” each time.
Consider `OC[C@H]1O[C@@H](O[C@H]2[C@H](O)[C@@H](O)[C@H](O[C@H]3[C@H](O)[C@@H](O)[C@H](O[C@H]4[C@H](O)[C@@H](O)C(O)O[C@@H]4CO)O[C@@H]3CO)O[C@@H]2CO)[C@H](O)[C@@H](O)[C@@H]1O` (some centres unmarked) [cellotetraose], for which the “induction of lignocellulolytic genes” value in experiment [1] is reported as “not induced”.
With `OC[C@H]1O[C@@](CO)(O[C@H]2O[C@H](CO)[C@@H](O)[C@H](O)[C@H]2O)[C@@H](O)[C@@H]1O` [sucrose], the “induction of lignocellulolytic genes” value in experiment [1] is listed as “not induced”. For the same compound, in experiment [2] (triple β-glucosidase deletion, two days), the MuLac activity entry is on record as “no activity towards MuLac”. Moreover, the “activity of secreted proteins towards MuLac” value in experiment [2] (Δcre-1, on sucrose) is given as “do not exhibit any activity towards MuLac”. Moreover, the “hydrolysis of crystalline cellulose by culture supernatant” value with Neurospora crassa [3] (WT cultures grown on or induced with the substance), in the experiment with Neurospora crassa [3] (Δ3βG cultures grown on or induced with the substance) and in the experiment on Neurospora crassa [3] (Δ3βGΔcre cultures grown on or induced with the substance) was “unable to produce glucose or cellobiose from crystalline cellulose” throughout. In addition, the secreted protein concentration with Neurospora crassa [4] (WT) turned out to be 270 µg/mL; with Neurospora crassa [4] (Δcre-1), 481 µg/mL. The compound further had a secreted protein in the experiment with Neurospora crassa [4] (triple β-glucosidase deletion, after 2 days) of 180 µg/mL.
For the compound `O=C[C@H](O)[C@@H](O)[C@@H](O)[C@H](O)CO` [D-(+)-galactose], the “induction of cellulase gene expression” value in experiment [1] (WT) and in experiment [1] (Δ3βG mutant) was “did not significantly induce” throughout.
On to `OC[C@H]1O[C@@H](O[C@H]2[C@H](O)[C@@H](O)C(O)O[C@@H]2CO)[C@H](O)[C@@H](O)[C@H]1O` (some centres unmarked) [lactose], for which the “induction of cellulase gene expression” value in experiment [1] (WT) and in experiment [1] (Δ3βG mutant) was “did not significantly induce” each time.
